Data: PMC11971462, “Generation and validation of a novel multitarget small molecule in glioblastoma” (Cell Death & Disease, 2025)

System: GNS166 cells
Assay: Label-free proteomics differential expression
Assay type: cell-based, human
Experimental: Proteomic studies were performed by the Proteomics Facility of the CIC bioGUNE by label-free relative quantification on nLC MS/MS. […] In both approaches, the top 20 enriched terms were plotted and the pathways were clustered using divisive hierarchical clustering based on pairwise Jaccard distances.

SMILES: C#CCN(Cc1cc2cc(OCCCN3CCCCC3)ccc2n1S(=O)(=O)c1ccccc1)C(=O)CCCCCCC(=O)NO [DDI]
- Direction TENS3_HUMAN (protein Q68CZ2): Down
- LogFC TENS3_HUMAN (protein Q68CZ2): -3.364
- LogFC LARP4_HUMAN (protein Q71RC2 GN=LARP4): 0.7689
- LogFC PEG10_HUMAN (protein Q86TG7 GN=PEG10): 3.16
- LogFC SETD3_HUMAN (protein Q86TU7 GN=SETD3): 0.5021
- Direction ACOT1_HUMAN (protein Q86TX2): Down
- LogFC ACOT1_HUMAN (protein Q86TX2): -1.83
- LogFC PABP2_HUMAN (protein Q86U42 GN=PABPN1): -1.1218
- Direction PB1_HUMAN (protein Q86U86): Down
- LogFC PB1_HUMAN (protein Q86U86): -2.078
- Direction PHLB1_HUMAN (protein Q86UU1): Down
- LogFC PHLB1_HUMAN (protein Q86UU1): -2.257
- Direction DTX2_HUMAN (protein Q86UW9): Down
- LogFC DTX2_HUMAN (protein Q86UW9): -1.305
- LogFC LUZP1_HUMAN (protein Q86V48 GN=LUZP1): 0.5884
- LogFC THOC4_HUMAN (protein Q86V81 GN=ALYREF): -0.9542
- Direction IQGA3_HUMAN (protein Q86VI3): Down
- LogFC IQGA3_HUMAN (protein Q86VI3): -2.742
- Direction MET16_HUMAN (protein Q86W50): Down
- LogFC MET16_HUMAN (protein Q86W50): -1.7557
- LogFC CCD25_HUMAN (protein Q86WR0 GN=CCDC25): 2.202
- LogFC NIT1_HUMAN (protein Q86X76 GN=NIT1): 0.9607
- Direction CNDG2_HUMAN (protein Q86XI2): Down
- LogFC CNDG2_HUMAN (protein Q86XI2): -2.11
- Direction ANKL2_HUMAN (protein Q86XL3): Down
- LogFC ANKL2_HUMAN (protein Q86XL3): -0.7885
- LogFC DDX42_HUMAN (protein Q86XP3 GN=DDX42): -0.6019
- Direction VRK2_HUMAN (protein Q86Y07): Down
- LogFC VRK2_HUMAN (protein Q86Y07): -1.564
- LogFC RAB43_HUMAN (protein Q86YS6 GN=RAB43): -1.528
- Direction RFT1_HUMAN (protein Q96AA3): Down
- LogFC RFT1_HUMAN (protein Q96AA3): -0.9928
- Direction TTC17_HUMAN (protein Q96AE7): Down
- LogFC TTC17_HUMAN (protein Q96AE7): -1.296
- LogFC PBIP1_HUMAN (protein Q96AQ6 GN=PBXIP1): 1.536
- LogFC SARAF_HUMAN (protein Q96BY9 GN=SARAF): 2.225
- LogFC ACSF2_HUMAN (protein Q96CM8 GN=ACSF2): 1.4396
- LogFC GCP3_HUMAN (protein Q96CW5 GN=TUBGCP3): -1.184
- LogFC RMXL1_HUMAN (protein Q96E39 GN=RBMXL1): 1.251
- LogFC SGTB_HUMAN (protein Q96EQ0 GN=SGTB): 0.9619
- Direction WDR34_HUMAN (protein Q96EX3): Down
- LogFC WDR34_HUMAN (protein Q96EX3): -2.769
- LogFC DYL2_HUMAN (protein Q96FJ2 GN=DYNLL2): 1.408
- Direction CERS2_HUMAN (protein Q96G23): Down
- LogFC CERS2_HUMAN (protein Q96G23): -1.352
- Direction AURKB_HUMAN (protein Q96GD4): Down
- LogFC AURKB_HUMAN (protein Q96GD4): -0.8936
- Direction TOE1_HUMAN (protein Q96GM8): Down
- LogFC TOE1_HUMAN (protein Q96GM8): -1.175
- Direction ITCH_HUMAN (protein Q96J02): Down
- LogFC ITCH_HUMAN (protein Q96J02): -0.7634
- Direction TOPK_HUMAN (protein Q96KB5): Down
- LogFC TOPK_HUMAN (protein Q96KB5): -2.0632
- Direction EHMT2_HUMAN (protein Q96KQ7): Down
- LogFC EHMT2_HUMAN (protein Q96KQ7): -1.8
- Direction EP400_HUMAN (protein Q96L91): Down
- LogFC EP400_HUMAN (protein Q96L91): -2.0331
- Direction TRI47_HUMAN (protein Q96LD4): Down
- LogFC TRI47_HUMAN (protein Q96LD4): -1.137
- LogFC FXL18_HUMAN (protein Q96ME1 GN=FBXL18): 0.7929
- LogFC DCBD2_HUMAN (protein Q96PD2 GN=DCBLD2): -0.7605
- LogFC NED4L_HUMAN (protein Q96PU5 GN=NEDD4L): 1.365
- LogFC S38A2_HUMAN (protein Q96QD8 GN=SLC38A2): 0.9305
- Direction MCCA_HUMAN (protein Q96RQ3): Down
- LogFC MCCA_HUMAN (protein Q96RQ3): -0.7659
- Direction INT14_HUMAN (protein Q96SY0): Down
- LogFC INT14_HUMAN (protein Q96SY0): -0.8896
- Direction RSF1_HUMAN (protein Q96T23): Down
- LogFC RSF1_HUMAN (protein Q96T23): -2.084
- Direction UHRF1_HUMAN (protein Q96T88): Down
- LogFC UHRF1_HUMAN (protein Q96T88): -2.206
- Direction VIGLN_HUMAN (protein Q00341): Down
- LogFC VIGLN_HUMAN (protein Q00341): -1.004
- Direction PAR14_HUMAN (protein Q460N5): Down
- LogFC PAR14_HUMAN (protein Q460N5): -1.711
- LogFC CDK5_HUMAN (protein Q00535 GN=CDK5): 1.129
- LogFC M17L2_HUMAN (protein Q567V2 GN=MPV17L2): 1.68
- LogFC PURA_HUMAN (protein Q00577 GN=PURA): 0.4477
- LogFC SFT2C_HUMAN (protein Q587I9 GN=SFT2D3): -1.885
- LogFC ACD11_HUMAN (protein Q709F0 GN=ACAD11): -0.7894
- LogFC CAP1_HUMAN (protein Q01518 GN=CAP1): 0.6335
- Direction OTUD4_HUMAN (protein Q01804): Down
- LogFC OTUD4_HUMAN (protein Q01804): -1.044
- Direction BDH_HUMAN (protein Q02338): Down
- LogFC BDH_HUMAN (protein Q02338): -0.9278
- LogFC DSC2_HUMAN (protein Q02487 GN=DSC2): 2.478
- LogFC AKA12_HUMAN (protein Q02952 GN=AKAP12): 2.896
- LogFC KIME_HUMAN (protein Q03426 GN=MVK): -0.3731
- Direction ERCC6_HUMAN (protein Q03468): Down
- LogFC ERCC6_HUMAN (protein Q03468): -0.8508
- Direction TAP1_HUMAN (protein Q03518): Down
- LogFC TAP1_HUMAN (protein Q03518): -0.8528
- Direction TAP2_HUMAN (protein Q03519): Down
- LogFC TAP2_HUMAN (protein Q03519): -0.8847
- Direction GLGB_HUMAN (protein Q04446): Down
- LogFC GLGB_HUMAN (protein Q04446): -0.6914
- Direction SRS11_HUMAN (protein Q05519): Down
- LogFC SRS11_HUMAN (protein Q05519): -0.4029
- Direction FOLC_HUMAN (protein Q05932): Down
- LogFC FOLC_HUMAN (protein Q05932): -1.856
- LogFC PUR1_HUMAN (protein Q06203 GN=PPAT): 0.9093
- LogFC GFPT1_HUMAN (protein Q06210 GN=GFPT1): -0.4508
- LogFC PRDX1_HUMAN (protein Q06830 GN=PRDX1): 1.081
- Direction B2CL1_HUMAN (protein Q07817): Down
- LogFC B2CL1_HUMAN (protein Q07817): -1.289
- Direction RHG01_HUMAN (protein Q07960): Down
- LogFC RHG01_HUMAN (protein Q07960): -0.6872
- Direction AHNK_HUMAN (protein Q09666): Down
- LogFC AHNK_HUMAN (protein Q09666): -0.5648
- Direction CPSF1_HUMAN (protein Q10570): Down
- LogFC CPSF1_HUMAN (protein Q10570): -0.5217
- LogFC SCRN1_HUMAN (protein Q12765 GN=SCRN1): -0.7259
- Direction CDC20_HUMAN (protein Q12834): Down
- LogFC CDC20_HUMAN (protein Q12834): -2.397
